Measurements taken from US20220202899A1, “COMPOSITION FOR PREVENTION OR TREATMENT OF HAIR LOSS INCLUDING HAPLN1” (HAPLNSCIENCE INC., priority 2019, published 2022).

Tests used:
p-ERK1/2 = p-ERK1/2 in human hair germinal matrix cells stimulated with TGF-β2 (Western blotting); assay type: cell-based; conditions: HAPLN1 25 ng/mL and/or HA 25 μg/mL, 23 hours; TGF-β2 2 ng/mL, 1 hour
Procedure: (§1) Human hair germinal matrix cells were dispensed into a poly-D-lysine 6-well plate at a concentration of 5.0×10^4 per well and cultured for 24 hours. After 24 hours, the medium was removed and replaced with a new serum-free medium. HAPLN1 was treated with 25 ng/mL and HA with 25 μg/mL, incubated for 23 hours, and then stimulated with TGF-β2 (2 ng/mL) for 1 hour. After collecting cells, a lysis buffer (25 mM Tris-HCl, 1 mM EDTA, 0.1% Triton-X100, phosphatase inhibitor, and protease inhibitor) was added, and all the cells were broken through sonication. p-ERK1/2, p-Smad2, p-MEK1/2, and p-c-Raf in the sample were measured using Western blotting. Optical densities of p-ERK1/2, p-Smad2, p-MEK1/2, and p-c-Raf were compared to those of ERK1/2, Smad2/3, MEK1, and c-Raf using a densitometer. Here, ERK1/2, Smad2/3, MEK1, and c-Raf were used as loading controls.

TβRII [1] = assay: TβRII protein after HAPLN1 and/or HA in CD44-deficient human hair germinal matrix cells; assay type: cell-based; conditions: after CD44 siRNA; HAPLN1 25 ng/mL and/or HA 25 μg/mL; TGF-β2 2 ng/mL, 23 hours
Procedure: (§2) The human hair germinal matrix cells, which were made to be deficient in CD44 by using CD44 siRNA, were dispensed into a poly-D-lysine 6-well plate at a concentration of 5.0×10^4 per well and cultured for 24 hours. After 24 hours, the medium was removed and replaced with a low-serum medium. CD44 siRNA and scrambled siRNA were added at a concentration of 25 pmol per well and incubated for 24 hours. After the siRNA and the medium were all removed, the medium was replaced with a serum-free medium having HAPLN1 (25 ng/mL) or HA (25 μg/mL) added thereto, and cultured for 1 hour. TGF-β2 (2 ng/mL) was treated and incubated for 23 hours. After collecting cells, a lysis buffer (25 mM Tris-HCl, 1 mM EDTA, 0.1% Triton-X100, phosphatase inhibitor, and protease inhibitor) was added, and all the cells were broken through sonication. TβRII in the sample was measured using Western blotting. The optical density of TβRII was compared to that of GAPDH using a densitometer.

TβRII [2] = assay: TβRII protein after exogenous HAPLN1 and/or HA in endogenous HAPLN1-deficient human hair germinal matrix cells; assay type: cell-based; conditions: after HAPLN1 siRNA; HAPLN1 25 ng/mL and/or HA 25 μg/mL; TGF-β2 2 ng/mL, 23 hours
Procedure: as §2, with “cells” for “cells, which were made to be deficient in CD44 by using CD44 siRNA,”, “HAPLN1” for “CD44”

p-MEK1/2 = p-MEK1/2 in human hair germinal matrix cells stimulated with TGF-β2 (Western blotting); assay type: cell-based; conditions: HAPLN1 25 ng/mL and/or HA 25 μg/mL; TGF-β2 2 ng/mL, 1 hour
Procedure: as §1

[3] = test system: human hair germinal matrix cells; assay: Cell proliferation of human hair germinal matrix cells, CCK-8 (Example 10); assay type: cell-based; conditions: HAPLN1 25 ng/mL and/or HA 25 μg/mL; TGF-β2 2 ng/mL, 23 hours
Procedure: Human hair germinal matrix cells were dispensed into a poly-D-lysine 96-well plate at a concentration of 2.0×10^4 per well and cultured for 24 hours. After 24 hours, the medium was removed and replaced with a new serum-free medium. HAPLN1 was treated with 25 ng/mL and HA with 25 μg/mL, incubated for 1 hour, and then stimulated with TGF-β2 (2 ng/mL) for 23 hours. CCK-8 (Enzo Biochem, NY, USA) was treated and incubated at 37° C. for 1 hour.

p-c-Raf = p-c-Raf in human hair germinal matrix cells stimulated with TGF-β2 (Western blotting); assay type: cell-based; conditions: HAPLN1 25 ng/mL and/or HA 25 μg/mL; TGF-β2 2 ng/mL, 1 hour
Procedure: as §1

p-Smad2 = p-Smad2 in human hair germinal matrix cells stimulated with TGF-β2 (Western blotting); assay type: cell-based; conditions: HAPLN1 25 ng/mL and/or HA 25 μg/mL; TGF-β2 2 ng/mL, 1 hour
Procedure: as §1

cell membrane TβRII = assay: Cell membrane TβRII protein (biotin labelling, immunoprecipitation, Western blotting); assay type: cell-based, human; conditions: HAPLN1 25 ng/mL and/or HA 25 μg/mL; TGF-β2 2 ng/mL
Procedure: All proteins present in the cell membrane were labeled with biotin, and immunoprecipitation was performed with a biotin antibody to isolate only the cell membrane protein. In order to confirm changes in the ratio of TβRII among cell membrane proteins, Western blotting was performed. The specific experimental method will now be described.
Human hair germinal matrix cells were dispensed into a poly-D-lysine 100 mm dish at a concentration of 2.7×10^6 and cultured for 24 hours. After 24 hours, the medium was removed and replaced with a new serum-free medium. HAPLN1 was treated with 25 ng/mL and HA with 25 μg/mL, and after 1 hour, TGF-β2 (2 ng/mL) was treated. To label biotin after 23 hours, EZ-Link™ Sulfo-NHS-LC-Biotin (Thermo Fisher Scientific, MA, USA) was treated at a concentration of 250 μg/mL and incubated at 4° C. for 1 hour. The biotin labeling reaction was terminated by treatment with 50 mM Tris-HCl. After collecting cells, a lysis buffer (50 mM Tris-HCl, 150 mM NaCl, 1% NP-40, phosphatase inhibitor, and protease inhibitor) was added, and all the cells were broken through sonication. Cell membrane proteins were isolated by performing immunoprecipitation experiments using anti-biotin antibodies. TβRII in the isolated membrane protein sample was measured using Western blotting. The optical density of TβRII was compared to that of GAPDH using a densitometer.

TβRII [4] = assay: TβRII protein in human hair germinal matrix cells treated with HAPLN1 and/or HA, then TGF-β2 (Western blotting); assay type: cell-based; conditions: HAPLN1 25 ng/mL or HA 25 μg/mL alone; TGF-β2 2 ng/mL after 1 hour; 23 hours
Procedure: Human hair germinal matrix cells were dispensed into a poly-D-lysine 6-well plate at a concentration of 5.0×10^4 per well and cultured for 24 hours. After 24 hours, the medium was removed and replaced with a new serum-free medium. HAPLN1 was treated with 25 ng/mL, HA was treated with 25 μg/mL, and after 1 hour, TGF-β2 (2 ng/mL) was treated. After 23 hours, cells were collected, a lysis buffer (25 mM Tris-HCl, 1 mM EDTA, 0.1% Triton-X100, phosphatase inhibitor, and protease inhibitor) was added, and all the cells were broken through sonication. TβRI and TβRII in the sample were measured using Western blotting. The optical density of TβRII was compared to that of GAPDH using a densitometer.

TβRII [5] = assay: TβRII protein in human hair germinal matrix cells deficient in endogenous HA (4-MU); assay type: cell-based; conditions: 4-MU-treated cells; HAPLN1 25 ng/mL; TGF-β2 2 ng/mL
Procedure: (§3) 4-MU (4-methylumbelliferone) is an inhibitor of HA-producing hyaluronan synthase 2 (HAS2), which produces HA. In order to confirm the effect of HA produced in cells, HA production in cells was inhibited using 4-MU.
(§4) The human hair germinal matrix cells, in which the endogenous HA was inhibited by treating 4-MU, were dispensed into a poly-D-lysine 6-well plate at a concentration of 5.0×10^4 per well and cultured for 24 hours. After 24 hours, the medium was removed and replaced with a new serum-free medium. HAPLN1 was treated with 25 ng/mL, and after 1 hour, TGF-β2 (2 ng/mL) was treated. After 23 hours, cells were collected, a lysis buffer (25 mM Tris-HCl, 1 mM EDTA, 0.1% Triton-X100, phosphatase inhibitor, and protease inhibitor) was added, and all the cells were broken through sonication. HAS2 and TβRII in the sample were measured using Western blotting. The optical density of each of HAS2 and TβRII was compared to that of GAPDH using a densitometer.

HAS2 = HAS2 protein in human hair germinal matrix cells deficient in endogenous HA (4-MU); assay type: cell-based; conditions: 4-MU-treated cells; HAPLN1 25 ng/mL; TGF-β2 2 ng/mL
Procedure: as §3, §4

Row | Compound | ERK1/2 signaling (p-ERK1/2 compared to ERK1/2) (p-ERK1/2) | TβRII protein in CD44-deficient cells (TβRII [1]) | TβRII protein in endogenous HAPLN1-deficient cells (TβRII [2]) | MEK1/2 activity (p-MEK1/2 compared to MEK1) (p-MEK1/2) | cell proliferation (absorbance at 450 nm) compared to the control group [3] | c-Raf activity (p-c-Raf compared to c-Raf) (p-c-Raf) | phosphorylation of Smad2 (p-Smad2) | cell membrane TβRII protein concentration (cell membrane TβRII) | TβRII protein (optical density compared to GAPDH) (TβRII [4]) | TβRII level (TβRII [5]) | HAS2 level (HAS2)
1 | Hyaluronic acid [HA, reference compound] | activated | not confirmed that TβRII was recovered | recovered | increased activities | promoted | increased activities | no change | increased | increased | – | –
2 | Cc1cc(=O)oc2cc(O)ccc12 [4-MU, 4-methylumbelliferone, reference compound] | – | – | – | – | – | – | – | – | – | decreased | decreased
